Among the data in PubChem BioAssay AID651642 (Sanford-Burnham Center for Chemical Genomics, 2012) are IC50 values, retold here.

Bounds are passed on as bounds.

One experiment relates to H9c2. The experiment can be described thus: protection of cardiomyocytes from stress damage, SAR follow-up, cell-based, panel, H9c2 and HL-1, H2O2, 2-deoxyglucose, ATP luminescence (AID 651642).
The next experiment concerns HL-1. The experiment is described as above.
Where [1] appears, read: H9c2/HL-1 cardiomyocyte 2-deoxyglucose damage, mean of runs, with 2-deoxyglucose, mean IC50 across panel.
[2] abbreviates: H9c2/HL-1 cardiomyocyte 2-deoxyglucose damage, run 1, with 2-deoxyglucose.
Setting [3] is: H9c2/HL-1 cardiomyocyte 2-deoxyglucose damage, run 2, with 2-deoxyglucose.
[4] abbreviates: H9c2/HL-1 cardiomyocyte 2-deoxyglucose damage, run 3, with 2-deoxyglucose.
The mark [5] stands for this setting: H9c2/HL-1 cardiomyocyte 2-deoxyglucose damage, run 4, with 2-deoxyglucose.
Where [6] appears, read: H9c2/HL-1 cardiomyocyte H2O2 oxidative damage, run 1, with H2O2.
The mark [7] stands for this setting: H9c2/HL-1 cardiomyocyte H2O2 oxidative damage, run 2, with H2O2.
[8] abbreviates: H9c2/HL-1 cardiomyocyte H2O2 oxidative damage, run 3, with H2O2.
Where [9] appears, read: H9c2/HL-1 cardiomyocyte H2O2 oxidative damage, run 4, with H2O2.
The mark [10] stands for this setting: H9c2/HL-1 cardiomyocyte H2O2 oxidative damage, mean of runs, with H2O2, mean IC50 across panel.

For the compound `COc1cc(-c2cc(C(=O)Nc3cccc(C(C)=O)c3)c3ccc(Cl)cc3n2)cc(OC)c1OC`, the IC50 (usually the concentration needed to halve the response being measured) is above 79 µM with H9c2 (setting [1]); above 79 µM in the experiment on H9c2 (setting [2]); above 79 µM in the experiment on H9c2 (setting [3]); above 79 µM in the experiment on H9c2 (setting [4]); above 79 µM with H9c2 (setting [5]); 3.39 µM in the experiment on H9c2 (setting [6]). Besides, the IC50 was 3.79 µM in the experiment on H9c2 (setting [7]); above 79 µM with H9c2 (setting [8]); above 79 µM with H9c2 (setting [9]); above 79 µM in the experiment with HL-1 (setting [1]); above 79 µM in the experiment with HL-1 (setting [2]); above 79 µM in the experiment on HL-1 (setting [3]). Moreover, the IC50 in the experiment with HL-1 (setting [4]) is above 79 µM; in the experiment with HL-1 (setting [5]), above 79 µM; in the experiment with HL-1 (setting [10]), 2.26 µM; with HL-1 (setting [6]), 3.07 µM; with HL-1 (setting [7]), 3.46 µM; with HL-1 (setting [8]) it was 0.875 µM. In the experiment with HL-1 (setting [9]), the IC50 came out at 1.65 µM.

With `COc1cccc(CNC(=O)CNC(=O)c2cc(-c3cc(OC)c(OC)c(OC)c3)nc3ccccc23)c1`, the IC50 is 38.6 µM in the experiment with H9c2 (setting [2]); 40.8 µM in the experiment with H9c2 (setting [3]); above 79 µM in the experiment on H9c2 (setting [4]); above 79 µM in the experiment on H9c2 (setting [5]); 5.76 µM in the experiment on H9c2 (setting [10]); 5.74 µM in the experiment on H9c2 (setting [6]). For the same compound, the IC50 turned out to be 7.73 µM with H9c2 (setting [7]); 4.38 µM with H9c2 (setting [8]); 5.17 µM in the experiment with H9c2 (setting [9]); 15.2 µM in the experiment with HL-1 (setting [1]); 9.87 µM with HL-1 (setting [2]); 10.8 µM in the experiment on HL-1 (setting [3]). Moreover, the IC50 is 17.7 µM in the experiment on HL-1 (setting [4]); 22.6 µM with HL-1 (setting [5]); above 79 µM with HL-1 (setting [6]); 13.1 µM with HL-1 (setting [7]); 6.25 µM in the experiment on HL-1 (setting [8]); 7.97 µM in the experiment on HL-1 (setting [9]).

On to `COc1ccc2c(c1OC)C(=O)N1c3ccccc3C(=O)N(Cc3ccc(F)cc3)C21` (stereo not drawn), for which the IC50 with H9c2 (setting [1]), with H9c2 (setting [2]), with H9c2 (setting [3]), in the experiment on H9c2 (setting [4]), in the experiment with H9c2 (setting [5]) and in the experiment on H9c2 (setting [6]) was above 79 µM throughout. For the same compound, the concentration for half-maximal inhibition (IC50) in the experiment on H9c2 (setting [7]) is 8.03 µM; in the experiment with H9c2 (setting [8]) it was above 79 µM; with H9c2 (setting [9]), above 79 µM; in the experiment with HL-1 (setting [1]), 19 µM; with HL-1 (setting [2]) it was 6.14 µM; with HL-1 (setting [3]) it was 10.7 µM. Moreover, the IC50 was 17.7 µM with HL-1 (setting [4]); 41.3 µM in the experiment with HL-1 (setting [5]); above 79 µM in the experiment with HL-1 (setting [10]); above 79 µM with HL-1 (setting [6]); above 79 µM in the experiment on HL-1 (setting [7]); above 79 µM in the experiment with HL-1 (setting [8]). The same compound came in with an IC50 in the experiment with HL-1 (setting [9]) above 79 µM.

For `CCOC(=O)c1cccc(NC(=O)c2cc(-c3cc(OC)c(OC)c(OC)c3)nc3cc(Cl)ccc23)c1`, the IC50 in the experiment with H9c2 (setting [1]), in the experiment with H9c2 (setting [2]), with H9c2 (setting [3]), with H9c2 (setting [4]), with H9c2 (setting [5]) and in the experiment with H9c2 (setting [6]) was above 79 µM each time. The half-maximal inhibitory concentration (IC50) with H9c2 (setting [7]) was 31.1 µM; with H9c2 (setting [8]) it was above 79 µM; with H9c2 (setting [9]), above 79 µM; in the experiment with HL-1 (setting [1]), above 79 µM; with HL-1 (setting [2]), above 79 µM; in the experiment with HL-1 (setting [3]) it was above 79 µM. For the same compound, the IC50 in the experiment with HL-1 (setting [4]) is above 79 µM; in the experiment on HL-1 (setting [5]), above 79 µM; with HL-1 (setting [6]), above 79 µM; in the experiment with HL-1 (setting [7]), above 79 µM; in the experiment on HL-1 (setting [8]), 6.51 µM; with HL-1 (setting [9]), 6.76 µM.

Consider `COc1ccc2c(c1OC)C(=O)N1c3ccccc3C(=O)N(Cc3cccc(Cl)c3Cl)C21` (stereo not drawn), for which the IC50 with H9c2 (setting [1]) worked out at 8.9 µM; with H9c2 (setting [2]), 9.42 µM; in the experiment with H9c2 (setting [3]), 12.2 µM; in the experiment with H9c2 (setting [4]), 6.65 µM; with H9c2 (setting [5]), 7.38 µM; in the experiment on H9c2 (setting [6]), 0.447 µM. In addition, the IC50 in the experiment on H9c2 (setting [7]) is 0.739 µM; with H9c2 (setting [8]), above 79 µM; with H9c2 (setting [9]), above 79 µM; with HL-1 (setting [1]), 1.48 µM; with HL-1 (setting [2]), 0.792 µM; with HL-1 (setting [3]) it was 0.807 µM. For the same compound, the IC50 in the experiment on HL-1 (setting [4]) is 1.98 µM; in the experiment on HL-1 (setting [5]), 2.35 µM; in the experiment with HL-1 (setting [10]) it was above 79 µM; in the experiment on HL-1 (setting [6]), above 79 µM; with HL-1 (setting [7]) it was above 79 µM; in the experiment on HL-1 (setting [8]) it was above 79 µM. The IC50 in the experiment with HL-1 (setting [9]) was above 79 µM.
